Where “and” joins values, the source holds several entries; their conditions need not be identical. Equal values may be shown once.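 96-well plates; 48 h exposure; 5 concentrations. Endpoints by linear interpolation between flanking doses. Not reached: highest tested concentration assigned. Abbreviation: GI50, concentration required for 50% inhibition of growth. The concentration for full growth arrest is given as TGI.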 Where only a bound is given, the exact number is not on record here.

Test in all cases: growth of human tumour cells (NCI), 48 h
The test system of experiment [1] is ACHN renal.
For experiment [2], the system named is CAKI-1 renal.
The subject of experiment [3] is DU-145 prostate.
Experiment [4] concerns HCC-2998 colon.
In experiment [5] the test system is KM12 colon.
Experiment [6] has as its system LOX IMVI melanoma.
For experiment [7], the system named is M14 melanoma.
In experiment [8] the test system is MOLT-4 leukemia.
The subject of experiment [9] is NCI-H522 lung.
The subject of experiment [10] is TK-10 renal.

Turning to `CN(C)CCNC(=O)Cn1ccc(=O)c2ccc([N+](=O)[O-])cc21`, the TGI in experiment [1], in experiment [2], in experiment [3], in [4], in experiment [5] and in experiment [6] was more than 100 µM each time. The TGI in experiment [7], in experiment [8], in [9] and in [10] was more than 100 µM throughout.

As for `CC(=O)OC1CCC2(C)C(CCC3C4CC=C(C(C)=O)C4(C)OC(=O)CC32)C1` (configuration not stated), the GI50 in experiment [1] is 1300 nM; in experiment [2], 2540 nM; in experiment [3], 2.36 µM; in experiment [4] it was 2210 nM; in [5], 9830 nM; in [6], 1610 nM. Besides, the GI50 in experiment [7] was 1710 nM; in [8] it was 2.29 µM; in [9], 1220 nM; in experiment [10], 2050 nM. Also, the TGI in [1] worked out at 2.61 µM; in [2], 9 µM; in experiment [3], 6.1 µM; in experiment [4] it was 4.06 µM; in experiment [5], 22.7 µM; in experiment [6] it was 3.17 µM. Further, the TGI stood at 3.51 µM in experiment [7], 6.41 µM in experiment [8], 2.64 µM in experiment [9] and 4.77 µM in experiment [10].

Consider `CCN(C(=O)CCl)C(C)(C)C(SSSC(c1ccc(Cl)cc1)C(C)(C)N(CC)C(=O)CCl)c1ccc(Cl)cc1` (configuration not stated), for which the GI50 in experiment [1] was 4780 nM; in [2], 4090 nM; in [3], 11.5 µM; in experiment [4], 11100 nM; in experiment [5] it was 10300 nM; in [6], 3100 nM. The GI50 is 1910 nM in [7], 4.46 µM in experiment [8], 2060 nM in [9] and 2500 nM in experiment [10]. For the same compound, the TGI was 16.9 µM in [1]; 15.4 µM in experiment [2]; 24.2 µM in [3]; 26.6 µM in [4]; 23 µM in experiment [5]; 10.7 µM in [6]. In addition, the TGI in experiment [7] is 3.65 µM; in experiment [8], 13.9 µM; in [9], 3.87 µM; in experiment [10], 7.92 µM.

As to `COc1ccc(/C=C/C(=O)c2ccc3cc(OC)c(OC)cc3c2)cc1OC`, the GI50 in experiment [1] was 3810 nM; in [2], 4290 nM; in experiment [3], 4.01 µM; in experiment [4] it was 3920 nM; in experiment [5] it was 2690 nM; in [6] it was 2950 nM. Further, the GI50 in [7] is 5470 nM; in experiment [8] it was 3.07 µM; in experiment [9], 2480 nM; in [10], 3170 nM. Besides, the TGI in experiment [1] is more than 100 µM; in [2], 65.4 µM; in [3], 15.7 µM; in experiment [4], 13.9 µM; in experiment [5] it was 7.95 µM; in [6], 11.2 µM. Moreover, the TGI in experiment [7] is 21 µM; in experiment [8], 9.53 µM; in experiment [9], 7.99 µM; in [10] it was 9.97 µM.

Turning to `COc1ccc2[nH]c(=O)c(/C=C/C(=O)/C=C/c3ccc(O)c(OC)c3)cc2c1`, the GI50 was 1680 nM in experiment [1]; 1710 nM in experiment [2]; 1.69 µM in experiment [3]; 1970 nM in experiment [4]; 1080 nM in [5]; 1540 nM in [6]. In addition, the GI50 in experiment [7] was 1670 nM; in experiment [8], 2.93 µM; in [9] it was 1740 nM; in experiment [10], 2290 nM. Further, the TGI in experiment [1] is 3.13 µM; in [2] it was 3.1 µM; in experiment [3], 3.5 µM; in experiment [4], 3.64 µM; in experiment [5] it was 2.66 µM; in [6], 3.18 µM. Also, the TGI in experiment [7] was 4.99 µM; in [8] it was more than 100 µM; in experiment [9] it was 3.87 µM; in experiment [10], 5.72 µM.

`C/C(=N\NC(=O)c1ccccc1O)c1cccc(/C(C)=N/NC(=O)c2ccccc2O)n1`: the GI50 is 668 nM in experiment [1]; 10.7 µM in experiment [3]; 489 nM in [4]; 456 nM in experiment [5]; 505 nM in experiment [6]; 0.424 µM in [8]. Moreover, the GI50 in [9] is 4750 nM and 856 nM; in [10], 614 nM. Also, the TGI was 50.5 µM and > 62.9 µM in experiment [1]; more than 100 µM in [2]; > 100 µM and 31.3 µM in experiment [3]; 11.5 µM and > 58.9 µM in experiment [4]; more than 100 µM in experiment [5]; more than 100 µM in experiment [6]. For the same compound, the TGI in [7] was more than 100 µM; in experiment [8], 17.5 µM and > 100 µM; in experiment [9], 27.8 µM and > 100 µM; in experiment [10], more than 80.6 µM.

In the case of `Nc1ncnc2c(C3OC(CO)C(O)C3O)[nH]nc12` (configuration not stated), the GI50 in [1] is 94.4 nM; in experiment [2], 36.5 nM and 61 nM; in experiment [3] it was 0.0125 µM; in [4], 57.5 nM; in experiment [5], 76 nM; in experiment [6] it was 147 nM. Besides, the GI50 in experiment [7] was 248 nM; in experiment [8], 3.59 µM and 2.01 µM; in experiment [9], 239 nM; in [10], 77.8 nM. For the same compound, the TGI in experiment [2] was 0.281 µM and 0.214 µM; in [3], 0.278 µM; in experiment [4] it was 3.11 µM and 1.31 µM; in [5] it was 8.13 µM and 14.3 µM; in experiment [6], 2.22 µM and 0.4 µM; in [7], 13.5 µM. The TGI in experiment [8] was 38.3 µM; in experiment [9], 3.74 µM and 6.29 µM; in experiment [10] it was 2.48 µM.

With `S=C=NCc1ccccc1`, the TGI in experiment [1] is 12.7 µM; in [2], 4.26 µM; in experiment [3] it was more than 41.2 µM; in experiment [4] it was 23.1 µM; in experiment [5] it was 15.8 µM; in [6] it was more than 22.5 µM. For the same compound, the TGI in [7] amounted to 5.81 µM; in experiment [8] it was 4.37 µM; in [9] it was 4.45 µM; in experiment [10] it was 12.2 µM.

As for `Cc1cc2c3ccccc3ccc2[n+]2ccccc12`, the GI50 was 29400 nM in [1]; more than 28000 nM in experiment [2]; 9.02 µM in [3]; 4710 nM in [4]; 1430 nM in [5]; 21500 nM in experiment [6]. The GI50 is 6530 nM in experiment [7], 4.64 µM in [8], 2600 nM in experiment [9] and 19700 nM in [10]. The TGI in [1] is more than 100 µM; in experiment [2], more than 100 µM; in [3], 40.4 µM; in experiment [4], 19.7 µM; in experiment [5], 11.6 µM; in experiment [6], 91.6 µM. Besides, the TGI in [7] was 22.8 µM; in experiment [8], 28.2 µM; in [9], 13.1 µM; in experiment [10] it was more than 86.8 µM.

The values above are taken from PubChem BioAssay (NCI).
